From patent publication US12692236B2, “Small molecule modulators of sigma-1 and sigma-2 receptors and uses thereof” (Northwestern University, priority 2018, dated 2026) come the findings set out here.

For assay [1], the target named is sigma-2 receptor (Homo sapiens, UniProt Q5BJF2). Briefly: sigma-2 receptor binding affinity (Ki).
Assay [2] has as its target sigma-1 receptor (Homo sapiens, UniProt Q99720). Briefly: sigma-1 receptor binding affinity (Ki).

Like-named read-outs stand apart in the source and are kept apart here.

sigma-2 receptor, sequence (Q5BJF2 whole entry, species assumed): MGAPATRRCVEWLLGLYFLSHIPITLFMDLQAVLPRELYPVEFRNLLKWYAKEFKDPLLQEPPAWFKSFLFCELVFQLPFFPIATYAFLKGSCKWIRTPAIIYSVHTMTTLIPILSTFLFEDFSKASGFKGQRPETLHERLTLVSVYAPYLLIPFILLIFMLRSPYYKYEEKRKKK
sigma-1 receptor, sequence (Q99720 whole entry, species assumed): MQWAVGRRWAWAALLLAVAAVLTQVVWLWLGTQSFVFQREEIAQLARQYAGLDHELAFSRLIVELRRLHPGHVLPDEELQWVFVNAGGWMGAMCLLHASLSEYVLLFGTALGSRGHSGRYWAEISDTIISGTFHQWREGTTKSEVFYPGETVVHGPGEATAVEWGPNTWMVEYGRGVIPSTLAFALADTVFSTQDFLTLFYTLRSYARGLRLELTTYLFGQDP

Regarding `CCCn1nc(C(=O)N2CCCCC2)c2c1CCC(NCCCN1CCCC1=O)C2` (stereo not shown) [compound 54120], the Ki in assay [1] (read-out: Ki (nM) Sigma-2) came to 673 nM.
Regarding `CCCn1nc(C(=O)N(C)C)c2c1CCC(NCc1ccc(F)cc1)C2` (stereo not shown) [compound 54121, 5-((4-Fluorobenzyl)amino)-N,N-dimethyl-1-propyl-4,5,6,7-tetrahydro-1H-indazole-3-carboxamide], the “activity against sigma-1 (in words)” value in assay [2] is “moderate activity”. Moreover, the “selectivity sigma-1 versus sigma-2 (in words)” value in assay [2] is listed as “slightly more selectivity for the sigma-1 receptor”. For the same molecule, the Ki in assay [2] (read-out: Ki (nM) Sigma-1) stood at 1580 nM; in assay [2] (read-out: Ki sigma-1), 1500 nM; in assay [1] (read-out: Ki (nM) Sigma-2) it was 2190 nM; in assay [1] (read-out: Ki sigma-2), 2100 nM. Moreover, the “activity against sigma-2 (in words)” value in assay [1] was “moderate activity”.
For `CCCn1nc(C(=O)N2CCCCC2)c2c1CCC(N1CCC(N(C)C)CC1)C2` (stereo not shown) [compound 196331, (5-(4-(dimethylamino)piperidin-1-yl)-1-propyl-4,5,6,7-tetrahydro-1H-indazol-3-yl)(piperidin-1-yl)methanone], the Ki in assay [2] (read-out: Ki (nM) Sigma-1) and in assay [1] (read-out: Ki (nM) Sigma-2) was greater than 10000 nM throughout.
Regarding `CCCn1nc(C(=O)N2CCCCC2)c2c1CCC(N1CCN(C)CC1)C2` (stereo not shown) [compound 196337, (5-(4-methylpiperazin-1-yl)-1-propyl-4,5,6,7-tetrahydro-1H-indazol-3-yl)(piperidin-1-yl)methanone], in assay [2] (read-out: Ki (nM) Sigma-1), the Ki was found to be 192 nM. Further, in assay [1], the “activity against sigma-2 (in words)” value is recorded as “great overall potency” and the “selectivity for sigma-2 over sigma-1” value is on record as “about 5 fold”. The Ki in assay [1] (read-out: Ki (nM) Sigma-2) came out at 34 nM.
Regarding `CCCn1nc(C(=O)N2CCCCC2)c2c1CCC(N1CCc3ccccc3C1)C2` (stereo not shown) [compound 196338, (5-(3,4-dihydroisoquinolin-2(1H)-yl)-1-propyl-4,5,6,7-tetrahydro-1H-indazol-3-yl)(piperidin-1-yl)methanone], in assay [1], the “activity against sigma-2 (in words)” value was “retained sigma-2 activity” and the “selectivity of sigma-2 ligands against sigma-1 (in words)” value (from here on “selectivity of sigma-2 ligands”) was “excellent selectivity”. Besides, the Ki in assay [1] (read-out: Ki (nM) Sigma-2) came to 31 nM.
For the molecule `CCCn1nc(C(=O)N2CCCCC2)c2c1CCC(N(C)Cc1ccc(F)cc1)C2` (stereo not shown) [compound 196339, (5-((4-fluorobenzyl)(methyl)amino)-1-propyl-4,5,6,7-tetrahydro-1H-indazol-3-yl)(piperidin-1-yl)methanone], the “selectivity of sigma-2 ligands” value in assay [1] is “excellent selectivity”. Moreover, in assay [1] (read-out: Ki (nM) Sigma-2), the Ki is 19 nM.
Turning to `CCCn1nc(C(=O)N2CCCCC2)c2c1CCC(NCCc1ccncc1)C2` (stereo not shown) [compound 200390, Piperidin-1-yl(1-propyl-5-((2-(pyridin-4-yl)ethyl)amino)-4,5,6,7-tetrahydro-1H-indazol-3-yl)methanone], the “activity against sigma-1 (in words)” value in assay [2] is reported as “eliminated the activity”. Besides, in assay [1], the “activity against sigma-2 (in words)” value is “eliminated the activity”.
For the molecule `CCCn1nc(C(=O)N(C)C)c2c1CCC(OCc1ccc(F)cc1)C2` (stereo not shown) [compound 200622, 5-((4-fluorobenzyl)oxy)-N,N-dimethyl-1-propyl-4,5,6,7-tetrahydro-1H-indazole-3-carboxamide], the “activity against sigma-1 (in words)” value in assay [2] was “completely lost”. In addition, the Ki in assay [2] (read-out: Ki (nM) Sigma-1) and in assay [1] (read-out: Ki (nM) Sigma-2) was greater than 10000 nM each time. The “activity against sigma-2 (in words)” value in assay [1] is reported as “completely lost”.
For the molecule `CCCn1nc(C(=O)N(C)C)c2c1CCC(SCc1ccc(F)cc1)C2` (stereo not shown) [compound 200624, 5-((4-fluorobenzyl)thio)-N,N-dimethyl-1-propyl-4,5,6,7-tetrahydro-1H-indazole-3-carboxamide], the “activity against sigma-1 (in words)” value in assay [2] is on record as “completely lost”. Further, the Ki in assay [2] (read-out: Ki (nM) Sigma-1) and in assay [1] (read-out: Ki (nM) Sigma-2) was greater than 10000 nM each time. Also, in assay [1], the “activity against sigma-2 (in words)” value is “completely lost”.
Regarding `CCCn1nc(C(=O)N(C)C)c2c1CCC(NS(=O)(=O)c1ccc(F)cc1)C2` (stereo not shown) [compound 200629, 5-((4-fluorophenyl)sulfonamido)-N,N-dimethyl-1-propyl-4,5,6,7-tetrahydro-1H-indazole-3-carboxamide], the “activity against sigma-1 (in words)” value in assay [2] was “did not restore the activity”. The Ki in assay [2] (read-out: Ki (nM) Sigma-1) and in assay [1] (read-out: Ki (nM) Sigma-2) was greater than 10000 nM throughout. In assay [1], the “activity against sigma-2 (in words)” value is recorded as “did not restore the activity”.
Take `CCCn1nc(C(=O)N2CCCCC2)c2c1CCC(Nc1ccc(N3CCCCC3)cc1)C2` (stereo not shown) [compound 200637, Piperidin-1-yl(5-((4-(piperidin-1-yl)phenyl)amino)-1-propyl-4,5,6,7-tetrahydro-1H-indazol-3-yl)methanone]: the Ki in assay [1] (read-out: Ki (nM) Sigma-2) was 787 nM.
Take `CCCn1nc(C(=O)N2CCCCC2)c2c1CCC(N1CCC(c3ccncc3)CC1)C2` (stereo not shown) [compound 200639, Piperidin-1-yl(1-propyl-5-(4-(pyridin-4-yl)piperidin-1-yl)-4,5,6,7-tetrahydro-1H-indazol-3-yl)methanone]: in assay [1], the “selectivity of sigma-2 ligands” value is reported as “excellent selectivity”. The Ki in assay [1] (read-out: Ki (nM) Sigma-2) came to 16 nM.
`CCCn1nc(C(=O)N2CCCCC2)c2c1CCC(NCCN1CCCCC1)C2` (stereo not shown) [compound 200640, Piperidin-1-yl(5-((2-(piperidin-1-yl)ethyl)amino)-1-propyl-4,5,6,7-tetrahydro-1H-indazol-3-yl)methanone]: the Ki in assay [1] (read-out: Ki (nM) Sigma-2) came out at 434 nM.
Still for that read-out and setting: to `CCCn1nc(C(=O)N2CCCCC2)c2c1CCC(N1CCN(Cc3ccc(C#N)cc3)CC1)C2` (stereo not shown) [compound 200641, 4-((4-(3-(Piperidine-1-carbonyl)-1-propyl-4,5,6,7-tetrahydro-1H-indazol-5-yl)piperazin-1-yl)methyl)benzonitrile] belongs 1100 nM.
For the molecule `CCCn1nc(C(=O)N2CCCCC2)c2c1CCC(NCC1CCOCC1)C2` (stereo not shown) [compound 200642, Piperidin-1-yl(1-propyl-5-(((tetrahydro-2H-pyran-4-yl)methyl)amino)-4,5,6,7-tetrahydro-1H-indazol-3-yl)methanone], the Ki in assay [1] (read-out: Ki (nM) Sigma-2) is 710 nM.
As for `CCCn1nc(C(=O)N2CCCCC2)c2c1CCC(NCCc1ccc(O)cc1)C2` (stereo not shown) [compound 200643, (5-((4-Hydroxyphenethyl)amino)-1-propyl-4,5,6,7-tetrahydro-1H-indazol-3-yl)(piperidin-1-yl)methanone], the results for the Ki in assay [2] (read-out: Ki (nM) Sigma-1) and in assay [1] (read-out: Ki (nM) Sigma-2) were greater than 10000 nM and 273 nM, respectively. Moreover, the “selectivity of sigma-2 ligands” value in assay [1] is “excellent selectivity”. Further, the “more potent against sigma-2” value in assay [1] (relative to earlier dimethyl amide analogs) was “about 8 fold”.
As to `CCCn1nc(C(=O)N2CCCCC2)c2c1CCC(NCCc1cccc(O)c1)C2` (stereo not shown) [compound 200646, (5-((3-Hydroxyphenethyl)amino)-1-propyl-4,5,6,7-tetrahydro-1H-indazol-3-yl)(piperidin-1-yl)methanone], the results for the Ki in assay [2] (read-out: Ki (nM) Sigma-1) and in assay [1] (read-out: Ki (nM) Sigma-2) were 872 nM and 612 nM, respectively.
With `CCCn1nc(C(=O)N2CCCCC2)c2c1CCC(NCc1ccc(N3CCCCC3)cc1)C2` (stereo not shown) [compound 200647, Piperidin-1-yl(5-((4-(piperidin-1-yl)benzyl)amino)-1-propyl-4,5,6,7-tetrahydro-1H-indazol-3-yl)methanone], in assay [1] (read-out: Ki (nM) Sigma-2), the Ki is 169 nM.
Regarding `CCCn1nc(C(=O)N2CCCCC2)c2c1CCC(NCc1ccc(S(N)(=O)=O)cc1)C2` (stereo not shown) [compound 200652, 4-(((3-(Piperidine-1-carbonyl)-1-propyl-4,5,6,7-tetrahydro-1H-indazol-5-yl)amino)methyl)benzenesulfonamide], in assay [1] (read-out: Ki (nM) Sigma-2), the Ki is 439 nM.
Turning to `CCCn1nc(C(=O)N2CCCCC2)c2c1CCC(Nc1ccc(Oc3ccccc3)cc1)C2` (stereo not shown) [compound 200702], the Ki was greater than 10000 nM in assay [2] (read-out: Ki (nM) Sigma-1) and 310 nM in assay [1] (read-out: Ki (nM) Sigma-2).
Regarding `CCCn1nc(C(=O)N2CCCCC2)c2c1CCC(N1CCN(c3ccc([N+](=O)[O-])cc3)CC1)C2` (stereo not shown) [compound 200709, (5-(4-(4-Nitrophenyl)piperazin-1-yl)-1-propyl-4,5,6,7-tetrahydro-1H-indazol-3-yl)(piperidin-1-yl)methanone], the Ki was found to be 1590 nM in assay [2] (read-out: Ki (nM) Sigma-1) and 526 nM in assay [1] (read-out: Ki (nM) Sigma-2).
On to `CCCn1nc(C(=O)N2CCCCC2)c2c1CCC(NCCCNC)C2` (stereo not shown) [compound 200820, (5-((3-(Methylamino)propyl)amino)-1-propyl-4,5,6,7-tetrahydro-1H-indazol-3-yl)(piperidin-1-yl)methanone], for which the Ki in assay [1] (read-out: Ki (nM) Sigma-2) was 1990 nM.
`CCCn1nc(C(=O)N2CCCCC2)c2c1CCC(NCCNC(=N)N)C2` (stereo not shown) [compound 200829, 2-(2-((3-(Piperidine-1-carbonyl)-1-propyl-4,5,6,7-tetrahydro-1H-indazol-5-yl)amino)ethyl)guanidine]: the “activity against sigma-2 (in words)” value in assay [1] is “decreased activity”. The Ki in assay [1] (read-out: Ki (nM) Sigma-2) amounted to 2160 nM.
On to `CCCn1nc(C(=O)N(C)C)c2c1CCC(NCc1ccc(OC)cc1OC)C2` (stereo not shown) [compound 200874, 5-((2,4-dimethoxybenzyl)amino)-N,N-dimethyl-1-propyl-4,5,6,7-tetrahydro-1H-indazole-3-carboxamide], for which, in assay [1] (read-out: Ki (nM) Sigma-2), the Ki is 839 nM.
`CCCn1nc(C(=O)N(C)C)c2c1CCC(NCc1ccc(Cl)cc1)C2` (stereo not shown) [compound 200875, 5-((4-chlorobenzyl)amino)-N,N-dimethyl-1-propyl-4,5,6,7-tetrahydro-1H-indazole-3-carboxamide]: the “activity against sigma-1 (in words)” value in assay [2] is reported as “complete loss of activity”. In addition, the “activity against sigma-2 (in words)” value in assay [1] is recorded as “moderate inhibition”. Moreover, in assay [1] (read-out: Ki (nM) Sigma-2), the Ki stood at 1020 nM.
In the case of `CCCn1nc(C(=O)N(C)C)c2c1CCC(NCCc1ccc3c(c1)OCO3)C2` (stereo not shown) [compound 200876, 5-((2-(benzo[d][1,3]dioxol-5-yl)ethyl)amino)-N,N-dimethyl-1-propyl-4,5,6,7-tetrahydro-1H-indazole-3-carboxamide], the Ki in assay [2] (read-out: Ki (nM) Sigma-1) is greater than 10000 nM; in assay [1] (read-out: Ki (nM) Sigma-2) it was 430 nM.
Consider `CCCn1nc(C(=O)N(C)C)c2c1CCC(NCCc1ccc(C(F)(F)F)cc1)C2` (stereo not shown) [compound 200878, N,N-dimethyl-1-propyl-5-((4-(trifluoromethyl)phenethyl)amino)-4,5,6,7-tetrahydro-1H-indazole-3-carboxamide], for which the figures for the Ki in assay [2] (read-out: Ki (nM) Sigma-1) and in assay [1] (read-out: Ki (nM) Sigma-2) were 1400 nM and 595 nM, respectively.
Consider `O=C(c1c2c(nn1-c1ccc(F)cc1)CCC(NCc1ccc(F)cc1)C2)N1CCCCC1` (stereo not shown) [compound 201117, (5-((4-fluorobenzyl)amino)-2-(4-fluorophenyl)-4,5,6,7-tetrahydro-2H-indazol-3-yl)(piperidin-1-yl)methanone], for which the “selectivity of sigma-1 ligand against sigma-2” value in assay [2] is “over 500 ×”. Further, the Ki in assay [2] (read-out: Ki (nM) Sigma-1) came to 17 nM.

One may read the Ki as the dissociation constant of the complex between target and ligand, obtained from inhibition or displacement.
